Data taken from ChEMBL document CHEMBL1697731, “Cheminformatics analysis of assertions mined from literature that describe drug-induced liver injury in different species” (Chem Res Toxicol, 2010).

Legend:
Hepatotoxicity [1] = assay: Literature-mined compound from Fourches et al multi-species drug-induced liver injury (DILI) dataset, effect in humans; conditions: human
Hepatotoxicity [2] = assay: Literature-mined compound from Fourches et al multi-species drug-induced liver injury (DILI) dataset, effect in rodents; conditions: rodentia
Hepatotoxicity [3] = assay: Literature-mined compound from Fourches et al multi-species drug-induced liver injury (DILI) dataset, effect in non-rodents

SMILES	Hepatotoxicity (Hepatotoxicity [1])	Hepatotoxicity (Hepatotoxicity [2])	Hepatotoxicity (Hepatotoxicity [3])	Hepatotoxicity (Hepatotoxicity [1]; Liver)	Hepatotoxicity (Hepatotoxicity [2]; Liver)	Hepatotoxicity (Hepatotoxicity [3]; Liver)
Cn1c(=O)c2[nH]cnc2n(C)c1=O.Cn1c(=O)c2[nH]cnc2n(C)c1=O.NCCN [AMINOPHYLLINE]	drug-induced liver injury reported	drug-induced liver injury reported	no drug-induced liver injury reported	–	–	–
Cc1c(N(C)C)c(=O)n(-c2ccccc2)n1C [AMINOPYRINE]	drug-induced liver injury reported	drug-induced liver injury reported	no drug-induced liver injury reported	–	–	–
Nc1ccc(C(=O)O)c(O)c1 [AMINOSALICYLIC ACID]	drug-induced liver injury reported	no drug-induced liver injury reported	no drug-induced liver injury reported	–	–	–
CCCCc1oc2ccccc2c1C(=O)c1cc(I)c(OCCN(CC)CC)c(I)c1 [AMIODARONE]	–	–	–	drug-induced liver injury reported	drug-induced liver injury reported	drug-induced liver injury reported
CN(C)CCC=C1c2ccccc2CCc2ccccc21 [AMITRIPTYLINE]	drug-induced liver injury reported	drug-induced liver injury reported	no drug-induced liver injury reported	–	–	–
CCOC(=O)C1=C(COCCN)NC(C)=C(C(=O)OC)C1c1ccccc1Cl (configuration not stated) [AMLODIPINE]	no drug-induced liver injury reported	drug-induced liver injury reported	no drug-induced liver injury reported	–	–	–
CCC1(CCC(C)C)C(=O)NC(=O)NC1=O [AMOBARBITAL]	no drug-induced liver injury reported	drug-induced liver injury reported	no drug-induced liver injury reported	–	–	–
CC1(C)S[C@@H]2[C@H](NC(=O)[C@H](N)c3ccc(O)cc3)C(=O)N2[C@H]1C(=O)O.O=C([O-])[C@H]1/C(=C/CO)O[C@@H]2CC(=O)N21.[K+] [AMOXICILLIN/CLAVULANIC ACID]	drug-induced liver injury reported	no drug-induced liver injury reported	no drug-induced liver injury reported	–	–	–
CC1(C)S[C@@H]2[C@H](NC(=O)[C@H](N)c3ccc(O)cc3)C(=O)N2[C@H]1C(=O)O [AMOXICILLIN]	drug-induced liver injury reported	no drug-induced liver injury reported	no drug-induced liver injury reported	–	–	–
CC(N)Cc1ccccc1 (configuration not stated) [AMPHETAMINE]	drug-induced liver injury reported	drug-induced liver injury reported	no drug-induced liver injury reported	–	–	–
C[C@@H]1[C@H](O)[C@@H](C)/C=C/C=C/C=C/C=C/C=C/C=C/C=C/[C@H](O[C@@H]2O[C@H](C)[C@@H](O)[C@H](N)[C@@H]2O)C[C@@H]2O[C@](O)(C[C@@H](O)C[C@@H](O)[C@H](O)CC[C@@H](O)C[C@@H](O)CC(=O)O[C@H]1C)C[C@H](O)[C@H]2C(=O)O [AMPHOTERICIN B]	drug-induced liver injury reported	drug-induced liver injury reported	no drug-induced liver injury reported	–	–	–
CC1(C)S[C@@H]2[C@H](NC(=O)[C@H](N)c3ccccc3)C(=O)N2[C@H]1C(=O)O [AMPICILLIN]	drug-induced liver injury reported	drug-induced liver injury reported	no drug-induced liver injury reported	–	–	–
COc1cc(NS(C)(=O)=O)ccc1Nc1c2ccccc2nc2ccccc12 [AMSACRINE]	drug-induced liver injury reported	no drug-induced liver injury reported	no drug-induced liver injury reported	–	–	–
CC(C)(C#N)c1cc(Cn2cncn2)cc(C(C)(C)C#N)c1 [ANASTROZOLE]	drug-induced liver injury reported	no drug-induced liver injury reported	no drug-induced liver injury reported	–	–	–
